Laboratory results taken from US20160296536A1, “Administration of Glucocorticoid Steroids to Livestock” (Animal Biotech, LLC, priority 2015, published 2016).

Columns and labels:
[1] = Example 1: serum cortisol in piglet blood samples (commercial kit); assay type: in vivo, piglets; settings: 24 h after weaning; P>0.05
Excerpt: In a study, a total of 64 piglets (32 gilts [females] and 32 barrows [castrated males]) with initial body weight (BW) of 4.8±0.7 Kg were assigned to four treatments. Treatments were in a 4×2 factorial arrangement with a completely randomized design with two main factors: (I) control (Con), two levels of cortisol agonist (Dexamethasone; DEX; subdivided into 2 dosage levels: DEXA and DEXB), or cortisol antagonist (Metyrapone; MET), and (II) gender (gilt vs. barrow). See Table at FIG. 9, for a summary of the list of the treatments, drug dosage, and number of the animals per treatment. Dexamethasone was injected intramuscular at dosages shown, while Metyrapone was mixed with applesauce and fed to the animals with a syringe. The study lasted for 5 weeks. It began one week before weaning (14-day old piglets), and continued 4 weeks after the weaning. Pigs were weaned at the age of 21-days. Piglets received the treatments either orally via diet or by intra-muscular injection one week before and again 24 hours before weaning. […] Serum cortisol was determined using a commercial kit. Feed intake, average daily gain, feed efficiency, and mortality/morbidity was determined. Body weights (body mass) of the animals were measured on a daily basis for a week after weaning, and then on a weekly basis until the end of the study. […]

[2] = Example 1: body weight and feed efficiency of piglets treated before weaning; assay type: in vivo; settings: for higher body weight relative to control animals: MET fed orally one week before and 24 hours before weaning; for higher body weight relative to control animals / improvement of (average) body weight: P<0.01; for improvement of (average) body weight: gilts (female pigs), intramuscular; for higher body weight than the controls at day 35 of the study: P<0.05
Excerpt: In a study, a total of 64 piglets (32 gilts [females] and 32 barrows [castrated males]) with initial body weight (BW) of 4.8±0.7 Kg were assigned to four treatments. Treatments were in a 4×2 factorial arrangement with a completely randomized design with two main factors: (I) control (Con), two levels of cortisol agonist (Dexamethasone; DEX; subdivided into 2 dosage levels: DEXA and DEXB), or cortisol antagonist (Metyrapone; MET), and (II) gender (gilt vs. barrow). See Table at FIG. 9, for a summary of the list of the treatments, drug dosage, and number of the animals per treatment. Dexamethasone was injected intramuscular at dosages shown, while Metyrapone was mixed with applesauce and fed to the animals with a syringe. The study lasted for 5 weeks. It began one week before weaning (14-day old piglets), and continued 4 weeks after the weaning. Pigs were weaned at the age of 21-days. Piglets received the treatments either orally via diet or by intra-muscular injection one week before and again 24 hours before weaning. Blood samples were collected by venipuncture of the jugular vein on day 14, 20, 21, 22, 23, 24, 26, 28, and 35 of age. Serum cortisol was determined using a commercial kit. Feed intake, average daily gain, feed efficiency, and mortality/morbidity was determined. Body weights (body mass) of the animals were measured on a daily basis for a week after weaning, and then on a weekly basis until the end of the study. See, FIGS. 2 and 3.

[3] = Example 2: body mass, daily gain, feed intake and gain-to-feed of weaned gilts; assay type: in vivo, piglets; settings: weaned pigs; 0.2 mg/kg intramuscular
Procedure: In this test, eighteen gilts (of commercially relevant genetics) were weaned at 23±2 days of age. These were housed in floor pens (3 pigs per pen), and assigned to 3 treatments: (1) unweaned suckling that received saline but no cortisol agonist (UWS), (2) weaning that received only saline (WS), and (3) weaning that received the cortisol agonist (WC). The piglets of Group (3) received a cortisol agonist (0.2 mg dexamethasone per kg of body mass) via intramuscular injection on the day before commencing weaning, and day 3 post-weaning. Those of Groups (1) and (2) received instead only a saline solution intra-muscular injection at the same time intervals. Body mass (BW) was monitored daily, and average daily mass gain (ADG) and mass of feed intake (ADFI) were measured and/or estimated for the course of the study. […] Data was analyzed using mixed procedures in SAS (PROC MIXED). Repeated measure analysis of variance was used for the parameters that were measured over time.

Compound	effect on serum cortisol levels [1]	increase of average body weight of the piglets ([2]; all piglets, average over the course of the study) [%]	higher body weight relative to control animals ([2]; barrows) [%]	effect on body weight of piglets at day 35 of the study ([2]; day 35)	higher body weight relative to control animals ([2]; gilts) [%]	effect on ADFI (mass of feed intake) [3]	effect on ADG (average daily mass gain) [3]	effect on body weight ([2]; barrows, anti-inflammatory dose, P>0.05)	improvement of (average) body weight ([2]; DEXA dose (anti-inflammatory)) [%]	improvement of (average) body weight ([2]; DEXB dose (immunosuppressive)) [%]	improvement of (average) body weight ([2]; DEXB dose (immunosuppressive), listed as dexamethasone) [%]	higher body weight than the controls at day 35 of the study ([2]; gilts, DEXA dose, day 35) [%]	higher body weight than the controls at day 35 of the study ([2]; gilts, DEXB dose, day 35) [%]
CC(C)(C(=O)c1cccnc1)c1cccnc1 [MET, Metyrapone]	Neither MET nor DEX had an effect	3.4	3	no effect	4								
C[C@@H]1C[C@H]2[C@@H]3CCC4=CC(=O)C=C[C@]4(C)[C@@]3(F)[C@@H](O)C[C@]2(C)[C@@]1(O)C(=O)CO [Dexamethasone]						no effect	no effect	no effect	9.3	4.1	4.4	13	12
